Assay results from US9902736B2, “1-oxo/acylation-14-acylated oridonin derivative, preparation method therefor and application thereof” (HANGZHOU BENSHENG PHARMACEUTICAL CO., LTD., priority 2012, dated 2018).
Converted amounts (≈) assume the structure as drawn.

Tested on: K562/ADR
Assay: Leukemia cell growth inhibition, MTT, 72 h
Assay type: cell-based
Details: Homo sapiens
Outline: (§1)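 Viability determined by MTT following a 72-hour, 37° C, 5% CO2 incubation with test compounds at different concentrations, added the day after seeding 6000 cells per well.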

Compound | IC50 [µg/mL] | IC90 [µg/mL]
C=C1C(=O)[C@]23[C@H](OC(=O)c4ccc(C)cc4)[C@H]1CC[C@H]2[C@@]12CO[C@@]3(O)[C@@H](O)[C@@H]1C(C)(C)CCC2OC(C)=O (stereo partly shown) [BS-OR-090] | 0.36 (≈ 0.686 µM) | 1.48 (≈ 2.82 µM)

Tested on: Kasumi-1
Assay: Leukemia cell growth inhibition, MTT, 72 h
Assay type: cell-based
Details: Homo sapiens
Outline: as §1

Compound | IC50 [µg/mL] | IC90 [µg/mL]
C=C1C(=O)[C@]23[C@H](OC(=O)c4ccc(C)cc4)[C@H]1CC[C@H]2[C@@]12CO[C@@]3(O)[C@@H](O)[C@@H]1C(C)(C)CCC2OC(C)=O (stereo partly shown) [BS-OR-090] | 0.37 (≈ 0.705 µM) | 1.3 (≈ 2.48 µM)

Tested on: H9
Assay: Leukemia cell growth inhibition, MTT, 72 h
Assay type: cell-based, human
Details: Homo sapiens, H9; 72 h, MTT
Outline: as §1

Compound | IC50 [µg/mL] | IC90 [µg/mL]
C=C1C(=O)[C@]23[C@H](OC(=O)c4ccc(C)cc4)[C@H]1CC[C@H]2[C@@]12CO[C@@]3(O)[C@@H](O)[C@@H]1C(C)(C)CCC2OC(C)=O (stereo partly shown) [BS-OR-090] | 0.06 (≈ 0.114 µM) | 0.37 (≈ 0.705 µM)

Same assay, conditions: as compared with oridonin

Compound | anti-H9 cell line activity increased [fold]
C=C1C(=O)[C@]23[C@H](OC(=O)c4ccc(C)cc4)[C@H]1CC[C@H]2[C@@]12CO[C@@]3(O)[C@@H](O)[C@@H]1C(C)(C)CCC2OC(C)=O (stereo partly shown) [BS-OR-090] | 22

Tested on: Jurkat
Assay: Leukemia cell growth inhibition, MTT, 72 h
Assay type: cell-based, human
Details: Homo sapiens, Jurkat; 72 h, MTT
Outline: as §1

Compound | IC50 [µg/mL] | IC90 [µg/mL]
C=C1C(=O)[C@]23[C@H](OC(=O)c4ccc(C)cc4)[C@H]1CC[C@H]2[C@@]12CO[C@@]3(O)[C@@H](O)[C@@H]1C(C)(C)CCC2OC(C)=O (stereo partly shown) [BS-OR-090] | 0.4 (≈ 0.762 µM) | 2.62 (≈ 4.99 µM)

Tested on: NB4
Assay: Leukemia cell growth inhibition, MTT, 72 h
Assay type: cell-based, human
Details: Homo sapiens, NB-4; 72 h, MTT
Outline: as §1

Compound | IC50 [µg/mL] | IC90 [µg/mL]
C=C1C(=O)[C@]23[C@H](OC(=O)c4ccc(C)cc4)[C@H]1CC[C@H]2[C@@]12CO[C@@]3(O)[C@@H](O)[C@@H]1C(C)(C)CCC2OC(C)=O (stereo partly shown) [BS-OR-090] | 0.05 (≈ 0.0953 µM) | 0.94 (≈ 1.79 µM)

Same assay, conditions: as compared with oridonin

Compound | anti-NB4 cell line activity increased [fold]
C=C1C(=O)[C@]23[C@H](OC(=O)c4ccc(C)cc4)[C@H]1CC[C@H]2[C@@]12CO[C@@]3(O)[C@@H](O)[C@@H]1C(C)(C)CCC2OC(C)=O (stereo partly shown) [BS-OR-090] | 15

Tested on: RPMI 8226
Assay: Multiple myeloma cell growth inhibition, MTT, 72 h
Assay type: cell-based
Details: Homo sapiens
Outline: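 Growth inhibition by MTT after 72 h drug exposure (37 °C, 5% CO2) over a concentration range of oridonin derivatives. RPMI 8226 cells plated at 6000 per well and dosed the following day.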

Compound | IC50 [µg/mL] | IC90 [µg/mL]
C=C1C(=O)[C@]23[C@H](OC(=O)c4ccc(C)cc4)[C@H]1CC[C@H]2[C@@]12CO[C@@]3(O)[C@@H](O)[C@@H]1C(C)(C)CCC2OC(C)=O (stereo partly shown) [BS-OR-090] | 0.2 (≈ 0.381 µM) | 1.61 (≈ 3.07 µM)

Tested on: CNE
Assay: Solid tumor cell growth inhibition, MTT, 72 h
Assay type: cell-based, human
Details: Homo sapiens, CNE; 72 h, MTT
Outline: (§2)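 After overnight-scale attachment (24 hours, 37° C, 5% CO2) in 10% FBS high-glucose DMEM, wells holding 6000 cells were dosed with varying compound concentrations and later scored for viable cell concentration.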

Compound | IC50 [µg/mL] | IC90 [µg/mL]
C=C1C(=O)[C@]23[C@H](OC(=O)c4ccc(C)cc4)[C@H]1CC[C@H]2[C@@]12CO[C@@]3(O)[C@@H](O)[C@@H]1C(C)(C)CCC2OC(C)=O (stereo partly shown) [BS-OR-090] | 0.98 (≈ 1.87 µM) | 4.59 (≈ 8.75 µM)

Same assay, conditions: in comparison with oridonin

Compound | anti-CNE activity increased [fold]
C=C1C(=O)[C@]23[C@H](OC(=O)c4ccc(C)cc4)[C@H]1CC[C@H]2[C@@]12CO[C@@]3(O)[C@@H](O)[C@@H]1C(C)(C)CCC2OC(C)=O (stereo partly shown) [BS-OR-090] | ~6

Tested on: Hela
Assay: Solid tumor cell growth inhibition, MTT, 72 h
Assay type: cell-based, human
Details: Homo sapiens, HeLa; 72 h, MTT
Outline: as §2

Compound | IC50 [µg/mL] | IC90 [µg/mL]
C=C1C(=O)[C@]23[C@H](OC(=O)c4ccc(C)cc4)[C@H]1CC[C@H]2[C@@]12CO[C@@]3(O)[C@@H](O)[C@@H]1C(C)(C)CCC2OC(C)=O (stereo partly shown) [BS-OR-090] | 0.96 (≈ 1.83 µM) | 3.67 (≈ 7 µM)

Same assay, conditions: in comparison with oridonin

Compound | anti-Hela activity increased
C=C1C(=O)[C@]23[C@H](OC(=O)c4ccc(C)cc4)[C@H]1CC[C@H]2[C@@]12CO[C@@]3(O)[C@@H](O)[C@@H]1C(C)(C)CCC2OC(C)=O (stereo partly shown) [BS-OR-090] | more than 5 fold

Tested on: Hep-2
Assay: Solid tumor cell growth inhibition, MTT, 72 h
Assay type: cell-based, human
Details: Homo sapiens, HEp-2; 72 h, MTT
Outline: as §2

Compound | IC50 [µg/mL] | IC90 [µg/mL]
C=C1C(=O)[C@]23[C@H](OC(=O)c4ccc(C)cc4)[C@H]1CC[C@H]2[C@@]12CO[C@@]3(O)[C@@H](O)[C@@H]1C(C)(C)CCC2OC(C)=O (stereo partly shown) [BS-OR-090] | 0.96 (≈ 1.83 µM) | 5.71 (≈ 10.9 µM)

Same assay, conditions: in comparison with oridonin

Compound | anti-Hep-2 activity increased [fold]
C=C1C(=O)[C@]23[C@H](OC(=O)c4ccc(C)cc4)[C@H]1CC[C@H]2[C@@]12CO[C@@]3(O)[C@@H](O)[C@@H]1C(C)(C)CCC2OC(C)=O (stereo partly shown) [BS-OR-090] | ~5

Tested on: MGC-803
Assay: Solid tumor cell growth inhibition, MTT, 72 h
Assay type: cell-based, human
Details: Homo sapiens, MGC-803; 72 h, MTT
Outline: as §2

Compound | IC50 [µg/mL] | IC90 [µg/mL]
C=C1C(=O)[C@]23[C@H](OC(=O)c4ccc(C)cc4)[C@H]1CC[C@H]2[C@@]12CO[C@@]3(O)[C@@H](O)[C@@H]1C(C)(C)CCC2OC(C)=O (stereo partly shown) [BS-OR-090] | 0.52 (≈ 0.991 µM) | 6.3 (≈ 12 µM)

Same assay, conditions: in comparison with oridonin

Compound | anti-MGC-803 activity increased [fold]
C=C1C(=O)[C@]23[C@H](OC(=O)c4ccc(C)cc4)[C@H]1CC[C@H]2[C@@]12CO[C@@]3(O)[C@@H](O)[C@@H]1C(C)(C)CCC2OC(C)=O (stereo partly shown) [BS-OR-090] | ~10

Tested on: A549
Assay: Solid tumor cell growth inhibition, MTT, 72 h
Assay type: cell-based
Details: Homo sapiens
Outline: as §2

Compound | IC50 [µg/mL] | IC90 [µg/mL]
C=C1C(=O)[C@]23[C@H](OC(=O)c4ccc(C)cc4)[C@H]1CC[C@H]2[C@@]12CO[C@@]3(O)[C@@H](O)[C@@H]1C(C)(C)CCC2OC(C)=O (stereo partly shown) [BS-OR-090] | 1.82 (≈ 3.47 µM) | 6.27 (≈ 12 µM)

Tested on: Becap-37
Assay: Solid tumor cell growth inhibition, MTT, 72 h
Assay type: cell-based
Details: Homo sapiens
Outline: as §2

Compound | IC50 [µg/mL] | IC90 [µg/mL]
C=C1C(=O)[C@]23[C@H](OC(=O)c4ccc(C)cc4)[C@H]1CC[C@H]2[C@@]12CO[C@@]3(O)[C@@H](O)[C@@H]1C(C)(C)CCC2OC(C)=O (stereo partly shown) [BS-OR-090] | 0.99 (≈ 1.89 µM) | 3.01 (≈ 5.74 µM)

Tested on: CaEs-17
Assay: Solid tumor cell growth inhibition, MTT, 72 h
Assay type: cell-based
Details: Homo sapiens, CaEs17
Outline: as §2

Compound | IC50 [µg/mL] | IC90 [µg/mL]
C=C1C(=O)[C@]23[C@H](OC(=O)c4ccc(C)cc4)[C@H]1CC[C@H]2[C@@]12CO[C@@]3(O)[C@@H](O)[C@@H]1C(C)(C)CCC2OC(C)=O (stereo partly shown) [BS-OR-090] | 0.9 (≈ 1.72 µM) | 3.65 (≈ 6.96 µM)

Tested on: Hep G2
Assay: Solid tumor cell growth inhibition, MTT, 72 h
Assay type: cell-based
Details: Homo sapiens, HepG2
Outline: as §2

Compound | IC50 [µg/mL] | IC90 [µg/mL]
C=C1C(=O)[C@]23[C@H](OC(=O)c4ccc(C)cc4)[C@H]1CC[C@H]2[C@@]12CO[C@@]3(O)[C@@H](O)[C@@H]1C(C)(C)CCC2OC(C)=O (stereo partly shown) [BS-OR-090] | 0.74 (≈ 1.41 µM) | 7.09 (≈ 13.5 µM)

Tested on: MG-63
Assay: Solid tumor cell growth inhibition, MTT, 72 h
Assay type: cell-based
Details: Homo sapiens
Outline: as §2

Compound | IC50 [µg/mL] | IC90 [µg/mL]
C=C1C(=O)[C@]23[C@H](OC(=O)c4ccc(C)cc4)[C@H]1CC[C@H]2[C@@]12CO[C@@]3(O)[C@@H](O)[C@@H]1C(C)(C)CCC2OC(C)=O (stereo partly shown) [BS-OR-090] | 0.36 (≈ 0.686 µM) | 0.92 (≈ 1.75 µM)

Tested on: PANC-1
Assay: Solid tumor cell growth inhibition, MTT, 72 h
Assay type: cell-based
Details: Homo sapiens
Outline: as §2

Compound | IC50 [µg/mL] | IC90 [µg/mL]
C=C1C(=O)[C@]23[C@H](OC(=O)c4ccc(C)cc4)[C@H]1CC[C@H]2[C@@]12CO[C@@]3(O)[C@@H](O)[C@@H]1C(C)(C)CCC2OC(C)=O (stereo partly shown) [BS-OR-090] | 1.31 (≈ 2.5 µM) | 4.41 (≈ 8.41 µM)

Tested on: PC-3
Assay: Solid tumor cell growth inhibition, MTT, 72 h
Assay type: cell-based
Details: Homo sapiens
Outline: as §2

Compound | IC50 [µg/mL] | IC90 [µg/mL]
C=C1C(=O)[C@]23[C@H](OC(=O)c4ccc(C)cc4)[C@H]1CC[C@H]2[C@@]12CO[C@@]3(O)[C@@H](O)[C@@H]1C(C)(C)CCC2OC(C)=O (stereo partly shown) [BS-OR-090] | 1.35 (≈ 2.57 µM) | 5.37 (≈ 10.2 µM)

Tested on: RKO
Assay: Solid tumor cell growth inhibition, MTT, 72 h
Assay type: cell-based
Details: Homo sapiens
Outline: as §2

Compound | IC50 [µg/mL] | IC90 [µg/mL]
C=C1C(=O)[C@]23[C@H](OC(=O)c4ccc(C)cc4)[C@H]1CC[C@H]2[C@@]12CO[C@@]3(O)[C@@H](O)[C@@H]1C(C)(C)CCC2OC(C)=O (stereo partly shown) [BS-OR-090] | 0.35 (≈ 0.667 µM) | 0.88 (≈ 1.68 µM)

Tested on: SK-OV-3
Assay: Solid tumor cell growth inhibition, MTT, 72 h
Assay type: cell-based
Details: Homo sapiens, SK-OV-3, 72 h, read-out: IC50 SK-OV-3
Outline: as §2

Compound | IC50 [µg/mL]
C=C1C(=O)[C@]23[C@H](OC(=O)c4ccc(C)cc4)[C@H]1CC[C@H]2[C@@]12CO[C@@]3(O)[C@@H](O)[C@@H]1C(C)(C)CCC2OC(C)=O (stereo partly shown) [BS-OR-090] | 1.35 (≈ 2.57 µM)

Same assay, conditions: Homo sapiens, SK-OV-3, 72 h, read-out: IC90 SK-OV-3

Compound | IC90 [µg/mL]
C=C1C(=O)[C@]23[C@H](OC(=O)c4ccc(C)cc4)[C@H]1CC[C@H]2[C@@]12CO[C@@]3(O)[C@@H](O)[C@@H]1C(C)(C)CCC2OC(C)=O (stereo partly shown) [BS-OR-090] | 5.37 (≈ 10.2 µM)

Tested on: U87-MG
Assay: Solid tumor cell growth inhibition, MTT, 72 h
Assay type: cell-based
Details: Homo sapiens, U-87 MG
Outline: as §2

Compound | IC50 [µg/mL] | IC90 [µg/mL]
C=C1C(=O)[C@]23[C@H](OC(=O)c4ccc(C)cc4)[C@H]1CC[C@H]2[C@@]12CO[C@@]3(O)[C@@H](O)[C@@H]1C(C)(C)CCC2OC(C)=O (stereo partly shown) [BS-OR-090] | 0.51 (≈ 0.972 µM) | 1.67 (≈ 3.18 µM)
